Measured values as given in ChEMBL document CHEMBL5058564, “EUbOPEN Chemogenomics Library 2 (Incucyte)” (2022).

How the values were obtained:
Assay type in all cases: toxicity, cell-based
U2OS = assay: Incucyte cell viability with U2OS; details: human, 10 µM, compound concentration 10 uM
Fibroblast = assay: Incucyte cell viability with human fibroblast; details: 10 µM, compound concentration 10 uM
HEK-293T = assay: Incucyte cell viability with HEK293T; details: human, 10 µM, compound concentration 10 uM
[1] = 0 h, replicate number 1, timepoint 0 hours
[2] = 0 h, replicate number 2, timepoint 0 hours
[3] = 6 h, replicate number 1, timepoint 6 hours
[4] = 6 h, replicate number 2, timepoint 6 hours
[5] = 12 h, replicate number 1, timepoint 12 hours
[6] = 18 h, replicate number 1, timepoint 18 hours
[7] = 12 h, replicate number 2, timepoint 12 hours
[8] = 18 h, replicate number 2, timepoint 18 hours
[9] = 24 h, replicate number 1, timepoint 24 hours
[10] = 24 h, replicate number 2, timepoint 24 hours
Note: unitless GR value; below 1 slowed growth and below 0 cell loss.

Compound | Growth Rate (U2OS; [1]) | Growth Rate (U2OS; [3]) | Growth Rate (U2OS; [5]) | Growth Rate (U2OS; [6]) | Growth Rate (Fibroblast; [2]) | Growth Rate (Fibroblast; [5]) | Growth Rate (Fibroblast; [7]) | Growth Rate (Fibroblast; [6]) | Growth Rate (Fibroblast; [8]) | Growth Rate (Fibroblast; [9]) | Growth Rate (Fibroblast; [10]) | Growth Rate (HEK-293T; [2]) | Growth Rate (HEK-293T; [5]) | Growth Rate (HEK-293T; [7]) | Growth Rate (HEK-293T; [6]) | Growth Rate (HEK-293T; [8]) | Growth Rate (HEK-293T; [9]) | Growth Rate (HEK-293T; [10]) | Growth Rate (Fibroblast; [3]) | Growth Rate (HEK-293T; [3]) | further results
Cc1ccc(OCC(O)C(C)NC(C)C)c2c1CCC2.Cl (stereo not given) | 0.09 | 1 | 0.83 | 0.98 | 0.52 | 0.74 | 0.32 | 0.5 | 0.54 | 0.38 | 0.51 | 0.95 | 0.49 | 0.63 | 0.16 | 0.65 | 0.03 | 0.62 |  |  | Growth Rate (U2OS; [2]): 0.28; Growth Rate (U2OS; [4]): 0.87; Growth Rate (Fibroblast; [1]): 0.41; Growth Rate (Fibroblast; [4]): 0.19; Growth Rate (HEK-293T; [4]): 0.7
CC(C)(O)C(=O)N1CCN(c2ccc(C(F)(F)F)c(C3=C(c4c[nH]c5ccccc45)C(=O)NC3=O)c2)CC1 | -0.52 | 0.8 | 0.92 | 0.66 | -0.42 | -0.33 | 0.04 | -0.31 | -0.06 | -0.3 | -0.09 | 0.33 | 0.3 | 0.37 | 0.44 | 0.36 | 0.33 |  | -0.69 | 0.49 | Growth Rate (U2OS; [2]): 0.29; Growth Rate (U2OS; [4]): 0.91; Growth Rate (U2OS; [7]): 0.78; Growth Rate (U2OS; [8]): 0.68; Growth Rate (U2OS; [9]): 0.67; Growth Rate (U2OS; [10]): 0.58; Growth Rate (Fibroblast; [1]): -0.17; Growth Rate (Fibroblast; [4]): 0.17; Growth Rate (HEK-293T; [4]): 0.88
Cc1cc(C)cc(C(=O)NOCCCCCC(=O)NO)c1 | 0.03 | 0.82 | 0.43 | 0.34 | 0.7 | 0.99 |  |  |  | 0.77 |  | 0.38 | 0.54 | 0.67 | 0.24 | 0.37 | 0.15 | 0.32 |  |  | Growth Rate (U2OS; [2]): -0.5; Growth Rate (U2OS; [4]): 0.51; Growth Rate (U2OS; [7]): 0.5; Growth Rate (U2OS; [8]): 0.4; Growth Rate (U2OS; [9]): 0.37; Growth Rate (U2OS; [10]): 0.36; Growth Rate (Fibroblast; [1]): -0.03
Cc1cc(=O)n(C)c2cc(N3C(=O)CC[C@H](NS(=O)(=O)CC(C)C)[C@H]3c3ccc(Cl)cc3)ccc12 | -0.56 | 0.78 | 0.8 | 0.5 |  | -0.73 | -0.53 | -0.76 | -0.4 | -0.65 | -0.38 | 0.38 | 0.15 | 0.9 | 0.21 | 0.76 | 0.18 | 0.8 | -0.91 | -0.08 | Growth Rate (U2OS; [2]): -0.09; Growth Rate (U2OS; [7]): 0.96; Growth Rate (U2OS; [9]): 0.7; Growth Rate (Fibroblast; [4]): -0.68
C[C@@H]1CC(=O)Nc2cccc(-c3ccc4c(c3)c(-c3cnn(C)c3)nn4C)c2N1 | -0.4 | 0.24 | 0.53 | 0.7 |  |  |  |  |  |  |  | 0.93 | 0.43 | 0.42 | 0.41 | 0.45 | 0.38 | 0.43 | 0.21 | 0.14 | Growth Rate (U2OS; [9]): 0.85; Growth Rate (HEK-293T; [4]): 0.26
CO[C@H]1CNC[C@@H](OCC2CCC(F)(F)CC2)[C@@H]1Nc1ncc(-c2cncc(C)c2)c2cc(C)c(=O)[nH]c12 | -0.36 | 0.62 | 0.39 | 0.7 | 0.95 | 0.16 | 0.53 | 0.28 | 0.64 | 0.1 | 0.73 | 0.51 | 0.87 |  | 0.84 |  | 0.85 |  | 0.63 |  | Growth Rate (U2OS; [7]): 0.98; Growth Rate (U2OS; [8]): 0.97; Growth Rate (U2OS; [9]): 0.53; Growth Rate (U2OS; [10]): 1; Growth Rate (Fibroblast; [1]): 0.72; Growth Rate (Fibroblast; [4]): 0.24
Cc1sc2c(c1C)C(c1ccc(Cl)cc1)=N[C@@H](CC(=O)NCCCCCCCCNC(=O)COc1cccc3c1C(=O)N(C1CCC(=O)NC1=O)C3=O)c1nnc(C)n1-2 (stereo not given in full) | -0.31 | 0.38 | 0.7 | 0.5 |  | -0.48 | -0.2 | -0.47 | -0.01 | -0.37 | -0.03 | 0.68 | 0.13 | 0.04 | 0.02 | -0.02 | 0.01 | -0.06 | -0.54 | 0.68 | Growth Rate (U2OS; [7]): 0.65; Growth Rate (U2OS; [8]): 0.72; Growth Rate (U2OS; [9]): 0.4; Growth Rate (U2OS; [10]): 0.7; Growth Rate (Fibroblast; [1]): 0.46; Growth Rate (Fibroblast; [4]): -0.38
Cc1cc(CN)cc(C)c1-c1ncn(C)c1-c1ccnc2cc(F)ccc12 | -0.16 | 0.54 | 0.64 | 0.92 | 0.5 | 0.5 | 0.83 | 0.18 | 0.64 | 0.09 | 0.58 | 0.31 | 0.93 | 0.96 | 0.79 | 0.92 | 0.87 | 0.92 | 0.31 | 0.86 | Growth Rate (U2OS; [2]): -0.67; Growth Rate (U2OS; [4]): 0.18; Growth Rate (U2OS; [7]): 0.55; Growth Rate (U2OS; [8]): 0.73; Growth Rate (U2OS; [9]): 0.79; Growth Rate (HEK-293T; [4]): 0.7
COCCN1CCC(c2cc(CN(C)C(=O)c3cccc(Oc4ccccc4)c3)ccn2)CC1 | -0.65 | 0.63 | 0.74 | 0.67 |  |  |  |  |  |  |  | 0.76 | 0.83 | 0.93 | 0.81 | 0.92 | 1 | 0.89 | 0.77 | 0.44 | Growth Rate (U2OS; [2]): -0.76; Growth Rate (U2OS; [4]): 0.6; Growth Rate (U2OS; [7]): 0.87; Growth Rate (U2OS; [8]): 0.97; Growth Rate (U2OS; [9]): 0.93; Growth Rate (Fibroblast; [1]): 0.94
CN(C)C(=O)N1CC[C@H](NC2=Nc3cc(F)ccc3N(CC(F)F)c3ccc(Cl)cc32)C1 |  |  |  |  | -0.03 | 0.6 |  | 0.62 | 0.82 | 0.32 | 0.81 | 0.7 | 0.82 | 0.77 | 0.89 | 0.79 | 0.83 | 0.88 | -0.43 | 0.94 | Growth Rate (U2OS; [7]): 0.92; Growth Rate (U2OS; [8]): 0.92; Growth Rate (HEK-293T; [4]): 0.35
CCn1c(-c2nc3cc(C(=O)N4CCCC(N)C4)ccc3n2C)cc2ccccc21.Cl (stereo not given) | -0.61 | 0.71 | 0.95 |  | 0.99 | -0.23 | 0.52 | -0.08 | 0.56 | 0.15 | 0.6 | -1 | 0.44 |  | 0.73 |  | 0.83 |  | -0.75 | 0.72 | Growth Rate (Fibroblast; [4]): 0.43
CCCCCCCCCCCCCCC[C@@H](O)[C@@H](N)COP(=O)(O)O |  |  | 0.64 |  | 0.12 | 0.44 | 0.66 | 0.43 | 0.7 | 0.23 | 0.73 | 0.71 | 0.48 | 0.76 | 0.51 | 0.88 | 0.63 | 0.74 | -0.14 | 0.25 | Growth Rate (Fibroblast; [4]): 0.42
